Experimental data published in article PMC7044277 (Nature Communications, 2020).
“And” between values parts separate entries of the source, which are not always exact repeats. Identical values can stand only once.

What was measured:
Assay type in all cases: cell-based
320 non-olfactory GPCRs [1] = target: T1, 320 non-olfactory GPCRs (Homo sapiens, UniProt P08912)
T1 construct: expressed in transfected cells; host or cells: HTLA cells

320 non-olfactory GPCRs [2] = target: T2, 320 non-olfactory GPCRs (Homo sapiens, UniProt P48960)
T2 construct: expressed in transfected cells; host or cells: HTLA cells

320 non-olfactory GPCRs [3] = target: T3, 320 non-olfactory GPCRs (Homo sapiens, UniProt Q01718); conditions: receptor MC2R; replicate values, Fig_4g
T3 construct: expressed in transfected cells; host or cells: HTLA cells

320 non-olfactory GPCRs [4] = target: T4, 320 non-olfactory GPCRs (Homo sapiens, UniProt Q8TDS7); conditions: receptor MRGPRD; replicate values, Fig_4g
T4 construct: expressed in transfected cells; host or cells: HTLA cells
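Throughout, for Fold of Basal: compound tested at 1 µM final concentration.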
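Throughout, for GPCRome agonism screen response: fold over basal response of each receptor without drug.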

T2 sequence (P48960 21-835): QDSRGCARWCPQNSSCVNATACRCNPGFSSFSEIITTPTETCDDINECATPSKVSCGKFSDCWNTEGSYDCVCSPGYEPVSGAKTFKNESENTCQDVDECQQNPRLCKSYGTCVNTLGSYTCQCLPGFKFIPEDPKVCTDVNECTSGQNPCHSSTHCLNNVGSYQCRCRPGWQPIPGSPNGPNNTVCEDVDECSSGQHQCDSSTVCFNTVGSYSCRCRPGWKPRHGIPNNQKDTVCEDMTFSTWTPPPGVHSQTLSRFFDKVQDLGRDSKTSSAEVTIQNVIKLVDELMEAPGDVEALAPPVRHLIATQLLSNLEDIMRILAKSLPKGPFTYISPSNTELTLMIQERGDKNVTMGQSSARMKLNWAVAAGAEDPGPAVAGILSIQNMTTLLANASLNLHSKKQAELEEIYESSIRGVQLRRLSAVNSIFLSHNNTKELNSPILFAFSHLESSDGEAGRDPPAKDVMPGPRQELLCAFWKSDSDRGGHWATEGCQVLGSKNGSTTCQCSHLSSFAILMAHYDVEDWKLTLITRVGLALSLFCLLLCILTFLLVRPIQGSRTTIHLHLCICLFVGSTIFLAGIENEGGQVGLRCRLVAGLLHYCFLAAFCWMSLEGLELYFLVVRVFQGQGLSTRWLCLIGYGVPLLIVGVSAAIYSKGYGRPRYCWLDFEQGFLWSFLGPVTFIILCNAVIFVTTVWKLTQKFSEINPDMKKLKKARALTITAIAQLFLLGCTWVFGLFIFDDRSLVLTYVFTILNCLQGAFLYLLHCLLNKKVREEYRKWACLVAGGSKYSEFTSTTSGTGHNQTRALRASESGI
T1 sequence (P08912 whole entry): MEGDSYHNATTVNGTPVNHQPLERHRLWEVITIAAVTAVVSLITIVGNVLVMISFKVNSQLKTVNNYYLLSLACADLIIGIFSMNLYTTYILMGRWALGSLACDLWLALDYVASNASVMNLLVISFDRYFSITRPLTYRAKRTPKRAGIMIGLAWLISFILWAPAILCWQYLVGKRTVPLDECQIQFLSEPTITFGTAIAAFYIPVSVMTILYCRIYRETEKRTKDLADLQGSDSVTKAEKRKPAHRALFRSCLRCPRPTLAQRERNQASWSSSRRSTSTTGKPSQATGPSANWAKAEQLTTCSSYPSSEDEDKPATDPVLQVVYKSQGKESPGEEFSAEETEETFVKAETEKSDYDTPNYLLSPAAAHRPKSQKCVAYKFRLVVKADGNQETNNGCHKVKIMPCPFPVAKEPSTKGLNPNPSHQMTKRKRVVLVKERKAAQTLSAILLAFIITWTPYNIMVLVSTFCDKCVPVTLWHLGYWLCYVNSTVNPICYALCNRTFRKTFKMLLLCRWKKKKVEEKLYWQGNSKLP
T3 sequence (Q01718 whole entry): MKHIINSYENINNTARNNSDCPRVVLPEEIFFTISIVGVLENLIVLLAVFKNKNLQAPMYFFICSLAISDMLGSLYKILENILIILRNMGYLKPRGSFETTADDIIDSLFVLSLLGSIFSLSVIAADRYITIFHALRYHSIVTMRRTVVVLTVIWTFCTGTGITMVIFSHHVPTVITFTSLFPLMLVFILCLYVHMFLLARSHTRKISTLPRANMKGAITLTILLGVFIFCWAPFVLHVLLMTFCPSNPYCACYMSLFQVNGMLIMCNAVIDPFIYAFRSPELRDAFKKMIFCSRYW
T4 sequence (Q8TDS7 whole entry): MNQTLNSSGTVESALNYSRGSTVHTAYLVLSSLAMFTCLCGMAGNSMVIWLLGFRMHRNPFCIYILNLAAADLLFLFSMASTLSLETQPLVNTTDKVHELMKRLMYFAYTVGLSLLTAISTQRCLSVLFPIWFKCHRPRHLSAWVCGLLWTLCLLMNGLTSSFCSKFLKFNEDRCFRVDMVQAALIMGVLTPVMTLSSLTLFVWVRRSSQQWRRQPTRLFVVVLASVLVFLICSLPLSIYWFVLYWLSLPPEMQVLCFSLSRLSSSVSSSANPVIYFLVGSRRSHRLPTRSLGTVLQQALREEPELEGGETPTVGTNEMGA

## CCOc1cccc2cc(C(C)NCC3(O)CCCCC3)oc12 (stereo not shown) [O4LE6]
320 non-olfactory GPCRs [1]
  Fold of Basal: 0.9113 and 1.052 and 0.8596 and 0.9753
320 non-olfactory GPCRs [2]
  Fold of Basal: 0.9696 and 0.6986 and 0.95 and 0.7013
320 non-olfactory GPCRs [3]
  GPCRome agonism screen response: 1.011 and 1.168 and 0.7811 and 1.192
320 non-olfactory GPCRs [4]
  GPCRome agonism screen response: 1.227 and 0.5077 and 1.775 and 0.8477
